Test results reported in patent publication EP3623369A1, “NOVEL MORPHOLINYL AMINE COMPOUNDS FOR THE TREATMENT OF AUTOIMMUNE DISEASE” (F. Hoffmann-La Roche AG, priority 2018, dated 2020).

Molecular target: T1, hTLR7 (Homo sapiens, UniProt Q9NYK1)
T1 sequence (Q9NYK1 27-1049): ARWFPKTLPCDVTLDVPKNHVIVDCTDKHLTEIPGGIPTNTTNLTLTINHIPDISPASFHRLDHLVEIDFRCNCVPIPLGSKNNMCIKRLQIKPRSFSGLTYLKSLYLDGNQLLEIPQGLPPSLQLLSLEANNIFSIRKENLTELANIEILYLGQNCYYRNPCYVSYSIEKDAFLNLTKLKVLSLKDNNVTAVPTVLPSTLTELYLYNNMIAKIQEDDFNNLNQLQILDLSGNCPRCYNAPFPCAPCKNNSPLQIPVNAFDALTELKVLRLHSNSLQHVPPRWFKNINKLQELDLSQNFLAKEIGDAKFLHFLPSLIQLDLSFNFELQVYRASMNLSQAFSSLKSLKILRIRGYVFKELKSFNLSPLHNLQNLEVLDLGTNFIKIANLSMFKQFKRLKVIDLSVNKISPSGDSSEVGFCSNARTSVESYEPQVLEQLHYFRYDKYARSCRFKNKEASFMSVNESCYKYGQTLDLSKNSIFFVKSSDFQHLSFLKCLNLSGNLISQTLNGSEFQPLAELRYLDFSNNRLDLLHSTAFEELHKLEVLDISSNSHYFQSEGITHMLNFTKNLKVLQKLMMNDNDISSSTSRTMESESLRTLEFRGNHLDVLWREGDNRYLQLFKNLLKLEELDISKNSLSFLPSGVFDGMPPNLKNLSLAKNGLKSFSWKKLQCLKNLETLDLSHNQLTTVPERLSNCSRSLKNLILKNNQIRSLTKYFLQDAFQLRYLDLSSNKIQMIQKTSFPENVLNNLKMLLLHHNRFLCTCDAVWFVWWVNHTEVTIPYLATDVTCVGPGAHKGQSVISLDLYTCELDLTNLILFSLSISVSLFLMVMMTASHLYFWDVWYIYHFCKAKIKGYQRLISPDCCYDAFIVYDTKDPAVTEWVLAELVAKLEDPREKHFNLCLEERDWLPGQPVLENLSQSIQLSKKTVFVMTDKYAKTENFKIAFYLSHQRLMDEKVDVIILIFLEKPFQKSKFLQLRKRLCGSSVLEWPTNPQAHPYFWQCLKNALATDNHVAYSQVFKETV
Assay: HEK293-Blue-hTLR-7 cells assay (SEAP reporter, R848 stimulation)
Format: cell-based
Conditions: HEK293-Blue-hTLR7 cells, R848, 20 hrs; 0.003 is the lowest tested concentration; read-out: HEK/hTLR7 IC50
Procedure: The following tests were carried out in order to determine the activity of the compounds of formula (I) or (Ia) in HEK293-Blue-hTLR-7/8/9 cells assay.
HEK293-Blue-hTLR-7 cells assay:
A stable HEK293-Blue-hTLR-7 cell line was purchased from InvivoGen (Cat.#: hkb-htlr7, San Diego, California, USA). These cells were originally designed for studying the stimulation of human TLR7 by monitoring the activation of NF-κB. A SEAP (secreted embryonic alkaline phosphatase) reporter gene was placed under the control of the IFN-β minimal promoter fused to five NF-κB and AP-1-binding sites. The SEAP was induced by activating NF-κB and AP-1 via stimulating HEK-Blue hTLR7 cells with TLR7 ligands. Therefore the reporter expression was declined by TLR7 antagonist under the stimulation of a ligand, such as R848 (Resiquimod), for incubation of 20 hrs. The cell culture supernatant SEAP reporter activity was determined using QUANTI-Blue™ kit (Cat.#: rep-qb1, Invivogen, San Diego, Ca, USA) at a wavelength of 640 nm, a detection medium that turns purple or blue in the presence of alkaline phosphatase.
HEK293-Blue-hTLR7 cells were incubated at a density of 250,000∼450,000 cells/mL in a volume of 170 µL in a 96-well plate in Dulbecco's Modified Eagle's medium (DMEM) containing 4.5 g/L glucose, 50 U/mL penicillin, […], […], 2 mM L-glutamine, 10% (v/v) heat-inactivated fetal bovine serum with addition of 20 µL test compound in a serial dilution in the presence of final DMSO at 1% and 10 µL of 20uM R848 in above DMEM, perform incubation under 37 °C in a CO2 incubator for 20 hrs. Then 20 µL of the supernatant from each well was incubated with 180 µL Quanti-blue substrate solution at 37 °C for 2 hrs and the absorbance was read at 620∼655 nm using a spectrophotometer. The signalling pathway that TLR7 activation leads to downstream NF-κB activation has been widely accepted, and therefore similar reporter assay was modified for evaluating TLR7 antagonist.

Compound	IC50 [nM]
C[C@@H]1CN(c2ccc3c(c2)CN(C[C@H]2CN(c4ccc(C#N)c5ncccc45)C[C@@H](C)O2)C3)C[C@H](C)N1 [Example 71, 5-[(2R,6S)-2-methyl-6-[[5-[(3R,5S)-3,5-dimethylpiperazin-1-yl]isoindolin-2-yl]methyl]morpholin-4-yl]quinoline-8-carbonitrile]	108
C[C@@H]1CN(c2ccc(C#N)c3ncsc23)C[C@H](CN2CCc3cc(N4CCNCC4)ccc3C2)O1 [Example 24, 7-[(2R,6S)-2-methyl-6-[(6-piperazin-1-yl-3,4-dihydro-1H-isoquinolin-2-yl)methyl]morpholin-4-yl]-1,3-benzothiazole-4-carbonitrile]	9
C[C@@H]1CN(c2ccc(C#N)n3nccc23)C[C@H](CN2Cc3ccc(N4CCN(C)CC4)cc3C2)O1 [Example 17, 4-[(2R,6S)-2-methyl-6-[[5-(4-methylpiperazin-1-yl)isoindolin-2-yl]methyl]morpholin-4-yl]pyrazolo[1,5-a]pyridine-7-carbonitrile]	65
C[C@@H]1CN(c2ccc(Cl)c3nccnc23)C[C@H](CN2CCc3cc(N4CCNCC4)ccc3C2)O1 [Example 34, (2R,6S)-4-(8-chloroquinoxalin-5-yl)-2-methyl-6-[(6-piperazin-1-yl-3,4-dihydro-1H-isoquinolin-2-yl)methyl]morpholine]	23
C[C@@H]1CN(c2ccc3c(c2)CN(C[C@H]2CN(c4ccc(C#N)c5nccnc45)C[C@@H](C)O2)C3)CCN1 [Example 65, 8-[(2R,6S)-2-methyl-6-[[5-[(3R)-3-methylpiperazin-1-yl]isoindolin-2-yl]methyl]morpholin-4-yl] quinoxaline-5-carbonitrile]	8
C[C@@H]1CN(c2ccc(C#N)c3ncccc23)C[C@H](CN2Cc3cnc(N4CCNCC4)cc3C2)O1 [Example 61, 5-[(2R,6S)-2-methyl-6-[(6-piperazin-1-yl-1,3-dihydropyrrolo[3,4-c]pyridin-2-yl)methyl]morpholin-4-yl]quinoline-8-carbonitrile]	23
C[C@@H]1CN(c2ccc(C#N)n3ncc(F)c23)C[C@H](CN2Cc3cc(N4CCNCC4)cnc3C2)O1 [Example 29, 3-fluoro-4-[(2R,6S)-2-methyl-6-[(3-piperazin-1-yl-5,7-dihydropyrrolo[3,4-b]pyridin-6-yl)methyl]morpholin-4-yl]pyrazolo[1,5-a]pyridine-7-carbonitrile]	49
C[C@@H]1CN(c2ccc(C#N)c3ncccc23)C[C@H](CN2Cc3ccc(N4CCNCC4CO)cc3C2)O1 (stereo partly drawn) [Example 73, 5-[(2S,6R)-2-[[5-[2-(hydroxymethyl)piperazin-1-yl]isoindolin-2-yl]methyl]-6-methyl-morpholin-4-yl]quinoline-8-carbonitrile]	48
C[C@@H]1CN(c2ccc(C#N)c3ncccc23)C[C@H](CN2CCc3nc(N4CCNCC4)ccc3C2)O1 [Example 79, 5-[(2R,6S)-2-methyl-6-[(2-piperazin-1-yl-7,8-dihydro-5H-1,6-naphthyridin-6-yl)methyl]morpholin-4-yl]quinoline-8-carbonitrile]	15
C[C@@H]1CN(c2ccc(C#N)c3nccnc23)C[C@H](CN2Cc3ccc(N4CCNC5(CC5)C4)cc3C2)O1 [Example 38, 8-[(2S,6R)-2-[[5-(4,7-diazaspiro[2.5]octan-7-yl)isoindolin-2-yl]methyl]-6-methyl-morpholin-4-yl]quinoxaline-5-carbonitrile]	23
C[C@@H]1CN(c2ccc(C#N)n3nccc23)C[C@H](CN2Cc3cc(N4CCNCC4)cnc3C2)O1 [Example 18, 4-[(2R,6S)-2-methyl-6-[(3-piperazin-1-yl-5,7-dihydropyrrolo[3,4-b]pyridin-6-yl)methyl]morpholin-4-yl]pyrazolo[1,5-a]pyridine-7-carbonitrile]	68
C[C@@H]1CN(c2ccc(C#N)c3nccnc23)C[C@H](CN2Cc3cc(N4CCNCC4)cnc3C2)O1 [Example 30, 8-[(2R,6S)-2-methyl-6-[(3-piperazin-1-yl-5,7-dihydropyrrolo[3,4-b]pyridin-6-yl)methyl]morpholin-4-yl]quinoxaline-5-carbonitrile]	16
C[C@@H]1CN(c2ccc(C#N)c3ncccc23)C[C@H](CN2Cc3ccccc3C2)O1 [Example R3, 5-[(2S,6R)-2-(isoindolin-2-ylmethyl)-6-methyl-morpholin-4-yl]quinoline-8-carbonitrile, reference compound]	186
3-fluoro-4-[(2R,6S)-2-methyl-6-[(5-piperazin-1-ylisoindolin-2-yl)methyl]morpholin-4-yl]pyrazolo[1,5-a]pyridine-7-carbonitrile [Example 7]	42
CC1c2ccc(N3CCNCC3)cc2CN1C[C@H]1CN(c2ccc(C#N)c3ncccc23)C[C@@H](C)O1 (stereo partly drawn) [Example 48, 5-[(2R,6S)-2-methyl-6-[(1-methyl-5-piperazin-1-yl-isoindolin-2-yl)methyl]morpholin-4-yl]quinoline-8-carbonitrile]	238
C[C@@H]1CN(c2ccc(C#N)c3ncccc23)C[C@H](CN2Cc3ccc(N4CC5(CNC5)C4)cc3C2)O1 [Example 47, 5-[(2S,6R)-2-[[5-(2,6-diazaspiro[3.3]heptan-2-yl)isoindolin-2-yl]methyl]-6-methyl-morpholin-4-yl]quinoline-8-carbonitrile]	84
C[C@@H]1CN(c2ccc(Cl)c3ncccc23)C[C@H](CN2Cc3ccc(N4CCNCC4)cc3C2)O1 [Example 31, (2R,6S)-4-(8-chloro-5-quinolyl)-2-methyl-6-[(5-piperazin-1-ylisoindolin-2-yl)methyl]morpholine]	29
C[C@@H]1CN(c2ccc3c(c2)CN(C[C@H]2CN(c4ccc(C#N)c5ncccc45)C[C@@H](C)O2)C3)C[C@@H](C)N1 (mixture of isomers) [Example 57, Trans-5-[(2R,6S)-2-methyl-6-[[5-[3,5-dimethylpiperazin-1-yl]isoindolin-2-yl]methyl]morpholin-4-yl]quinoline-8-carbonitrile]	125
C[C@@H]1CN(c2ccc(C#N)n3nccc23)C[C@H](CN2Cc3ccc(OCCN(C)C)cc3C2)O1 [Example 28, 4-[(2S,6R)-2-[[5-[2-(dimethylamino)ethoxy]isoindolin-2-yl]methyl]-6-methyl-morpholin-4-yl]pyrazolo[1,5-a]pyridine-7-carbonitrile]	227
C[C@@H]1CN(c2ccc(C#N)c3nccnc23)C[C@H](CN2Cc3ccc(N4CCN[C@@H](C)C4)cc3C2)O1 [Example 66, 8-[(2R,6S)-2-methyl-6-[[5-[(3S)-3-methylpiperazin-1-yl]isoindolin-2-yl]methyl]morpholin-4-yl]quinoxaline-5-carbonitrile]	6
COCCN1CCN(c2ccc3c(c2)CN(C[C@H]2CN(c4ccc(C#N)c5nccnc45)C[C@@H](C)O2)C3)CC1 [Example 37, 8-[(2S,6R)-2-[[5-[4-(2-methoxyethyl)piperazin-1-yl]isoindolin-2-yl]methyl]-6-methyl-morpholin-4-yl]quinoxaline-5-carbonitrile]	50
